Assay results reported in patent US20260027068A1, “METHODS OF ADM[…]-KETAMINE” (Perception Neuroscience, Inc., priority 2022, published 2026).

How the values were obtained:
[1] = test system: subjects with TRD; test: MADRS total score after a single 40-minute IV infusion, double-blind placebo-controlled study in TRD; type: in vivo, human; conditions: 60 mg; for Change from Baseline MADRS Total Score, Adjusted mean (SE) / Diff. Adjusted mean (SE) R(−)ketamine - Placebo: MMRM
Method: This was a double-blind, randomized, placebo-controlled, multicenter study comprised of 3 phases: screening (up to 2 weeks [day-15 to day-2]), in-clinic treatment (day-1 to day 2; including double-blind treatment [day 1]), and post-treatment follow-up (7 and 14 days after infusion on days 8 and 15, respectively). The study consisted of 3 arms: placebo, R(−)-ketamine solution (30 mg), and R(−)-ketamine solution (60 mg.) A total of 101 adult subjects with TRD were randomly allocated in cohorts of 33-35 subjects/arm to the 3 arms of the study in a blinded manner.
The subjects were randomized within 14 days of screening (Visit 1). Subjects were admitted to the clinic the evening prior to study treatment administration (day-1, Visit 2) and underwent baseline testing to ensure continued study eligibility. Study treatments were infused IV over 40 minutes the next morning (day 1, Visit 2). Starting immediately prior to dosing, subjects were monitored closely for safety.
To determine the efficacy of two doses (30 mg and 60 mg) of intravenous (IV) R(−)-ketamine hydrochloride, the doses were administered as an IV infusion over 40 minutes. These doses are within the range shown to be well-tolerated in a Phase 1 study in healthy volunteers. […] The 10-item clinician-administered MADRS was designed to be used in subjects with MDD to measure the overall severity of depressive symptoms. The MADRS scale is validated, reliable, and acceptable to regulatory health authorities as a primary scale to determine efficacy in major depression.
Population: Subjects with TRD in the full analysis set (FAS) and analyzed according to their randomized treatment. The analysis population includes all randomized subjects who receive any amount of study treatment and have at least one postbaseline assessment available. Variable: Change in total MADRS score from baseline at 24 hours after the start of infusion.
MADRS total score was assessed at 2 and 4 hours, 7 and 14 days after the start of the infusion (days 8 and 15, respectively). Note, for the 2-hour and 4-hour recall periods, the sleep and appetite items were not assessed.
Proportion of subjects with ≥50% improvement in MADRS total score at 24 hours, 7 days, and 14 days after start of infusion (days 8 and 15, respectively).
Proportion of subjects with a MADRS total score≤10 at 24 hours, 7 days, and 14 days after start of infusion (days 8 and 15, respectively).
The 10-item MADRS was administered by the study staff to measure the overall severity of depressive symptoms. The MADRS total score was assessed at screening and baseline (Day 1 pre-dose). The primary efficacy endpoint of improvement in the MADRS total score was evaluated prior to discharge on Day 2 of Visit 2, 24 hours after the start of the infusion of study treatment. The MADRS total score was also assessed at 2 hours, 4 hours, 7 days (on Day 8), and 14 days (on Day 15) after the start of the infusion to evaluate the secondary efficacy endpoints of response (defined as ≥50% improvement in the MADRS total score from pre-dose) and remission (defined as MADRS total score≤10) in the improvement of depressive symptoms in the subjects. While the MADRS is typically used with a 7-day recall period, versions of the MADRS including 2-hour and […] recall periods were used in this study. (For the 2 hour and 4 hour periods, the sleep and appetite items were […]; pre-dose scores for these items obtained on the same day were carried forward).
The change from baseline in MADRS scores was summarized separately by treatment arm for each visit. Associated baseline scores were taken as the last corresponding measurement prior to the first dose of IMP in the treatment period (i.e., Visit 2, pre-dose). The primary endpoint of change from baseline MADRS total score at 24 hours post start of infusion was evaluated using a mixed effects model for repeated measure (MMRM) analysis with observed cases only. […]

[2] = test system: mouse model of depression; conditions: cited from earlier work
[3] = Day 1, 24 hours, primary endpoint

Question: For `CN[C@@]1(c2ccccc2Cl)CCCCC1=O.Cl` [R(−)-ketamine, (2R)-2-(2-chlorophenyl)-2-(methylamino)cyclohexan-1-one], which “MADRS total score, Median” value ([1]; 2 hours) is on record?
Answer: 20.0

Question: What about the “MADRS total score, Mean” value ([1]; 4 hours) of the same compound?
Answer: 17.6

Question: What about the “MADRS total score, Median” value ([1]; 4 hours) of the same compound?
Answer: 18.0

Question: And the “MADRS total score, Mean” value ([1]; 24 hours (Day 2))?
Answer: 15.1

Question: And the “MADRS total score, Median” value ([1]; 24 hours (Day 2))?
Answer: 16.0

Question: And the “Not-responder, %” value ([1]; Day 1, 2 hours)?
Answer: 68.6%

Question: What about the “Responder (>=50% improvement of MADRS total score), %” value ([1]; Day 1, 2 hours) of the same compound?
Answer: (31.4) %

Question: What about the “adjusted odds ratio R-ket/placebo (95% CI)” value ([1]; Day 1, 2 hours) of the same compound?
Answer: 2.031 (0.634, 6.504)

Question: What about the “Change from Baseline MADRS Total Score, Adjusted mean (SE)” value (shortened to “Change … (SE)”) ([1]; Day 1, 2 hours) of the same compound?
Answer: −12.0 (1.31)

Question: What about the “Diff. Adjusted mean (SE) R(−)ketamine - Placebo” value ([1]; Day 1, 2 hours) of the same compound?
Answer: −2.9 (1.82) [−6.55, 0.67]

Question: And the “Not-responder, %” value ([1]; Day 1, 4 hours)?
Answer: 62.9%

Question: What about the “Responder (>=50% improvement of MADRS total score), %” value ([1]; Day 1, 4 hours) of the same compound?
Answer: (37.1) %

Question: What about the “adjusted odds ratio R-ket/placebo (95% CI)” value ([1]; Day 1, 4 hours) of the same compound?
Answer: 1.536 (0.534, 4.416)

Question: What about the “Change … (SE)” value ([1]; Day 1, 4 hours) of the same compound?
Answer: −12.8 (1.32)

Question: What about the “Diff. Adjusted mean (SE) R(−)ketamine - Placebo” value ([1]; Day 1, 4 hours) of the same compound?
Answer: −1.7 (1.83) [−5.34, 1.92]

Question: And the “Not-responder, %” value ([1]; Day 1, 24 hours)?
Answer: 54.3%

Question: What about the “Responder (>=50% improvement of MADRS total score), %” value ([1]; Day 1, 24 hours) of the same compound?
Answer: (45.7) %

Question: What about the “adjusted odds ratio R-ket/placebo (95% CI)” value ([1]; Day 1, 24 hours) of the same compound?
Answer: 0.847 (0.318, 2.254)

Question: And the “Change … (SE)” value [1, 3]?
Answer: −15.3 (1.69)

Question: What about the “Diff. Adjusted mean (SE) R(−)ketamine - Placebo” value [1, 3] of the same compound?
Answer: −1.6 (2.38) [−6.35, 3.11]

Question: What about the “MADRS total score, Mean” value ([1]; Day 8) of the same compound?
Answer: 17.7

Question: And the “MADRS total score, Median” value ([1]; Day 8)?
Answer: 21.0

Question: And the “Not-responder, %” value ([1]; Day 8)?
Answer: 65.7%

Question: What about the “Responder (>=50% improvement of MADRS total score), %” value ([1]; Day 8) of the same compound?
Answer: (34.3) %

Question: And the “adjusted odds ratio R-ket/placebo (95% CI)” value ([1]; Day 8)?
Answer: 1.202 (0.412, 3.511)

Question: What about the “Change … (SE)” value ([1]; Day 8) of the same compound?
Answer: −12.7 (1.72)

Question: And the “Diff. Adjusted mean (SE) R(−)ketamine - Placebo” value ([1]; Day 8)?
Answer: −1.4 (2.44) [−6.26, 3.45]

Question: What about the “MADRS total score, Mean” value ([1]; Day 15) of the same compound?
Answer: 19.3

Question: And the “MADRS total score, Median” value ([1]; Day 15)?
Answer: 22.0

Question: And the “Not-responder, %” value ([1]; Day 15)?
Answer: 65.7%

Question: What about the “Responder (>=50% improvement of MADRS total score), %” value ([1]; Day 15) of the same compound?
Answer: (34.3) %

Question: And the “adjusted odds ratio R-ket/placebo (95% CI)” value ([1]; Day 15)?
Answer: 1.715 (0.559, 5.263)

Question: What about the “Change … (SE)” value ([1]; Day 15) of the same compound?
Answer: −11.1 (1.73)

Question: And the “Diff. Adjusted mean (SE) R(−)ketamine - Placebo” value ([1]; Day 15)?
Answer: −1.2 (2.46) [−6.09, 3.69]

Question: And the “MADRS difference from placebo” value ([1]; day 15)?
Answer: ~2 point

Question: What about the “Statistical significance of the MADRS difference from placebo” value ([1]; day 15) of the same compound?
Answer: not statistically significant

Question: And the “MADRS total score change from baseline, Mean” value ([1]; to 2 hours)?
Answer: −11.3

Question: And the “MADRS total score change from baseline, Median” value ([1]; to 2 hours)?
Answer: −10.0

Question: What about the “MADRS total score change from baseline, Mean” value ([1]; to 4 hours) of the same compound?
Answer: −12.1

Question: And the “MADRS total score change from baseline, Median” value ([1]; to 4 hours)?
Answer: −12.0

Question: What about the “MADRS total score change from baseline, Mean” value ([1]; to 24 hours) of the same compound?
Answer: −14.5

Question: What about the “MADRS total score change from baseline, Median” value ([1]; to 24 hours) of the same compound?
Answer: −14.0

Question: And the “MADRS total score change from baseline, Mean” value ([1]; to Day 8)?
Answer: −12.0

Question: And the “MADRS total score change from baseline, Median” value ([1]; to Day 8)?
Answer: −10.0

Question: And the “MADRS total score change from baseline, Mean” value ([1]; to Day 15)?
Answer: −10.4

Question: And the “MADRS total score change from baseline, Median” value ([1]; to Day 15)?
Answer: −6.0

Question: What about the “Antidepressant effects on depression-like symptoms” value [2] of the same compound?
Answer: more potent antidepressant effects on the depression-like symptoms when compared to S(+)-ketamine
